Reference: patent US12637718B2, “Predictive biomarkers for onvansertib treatment” (Cardiff Oncology, Inc., priority 2021, dated 2026)

Experiments:
[1] = molecular target: PLK1 (Homo sapiens, UniProt P53350); conditions: among a panel of 296 kinases, including other PLK members; cited from earlier work
[2] = system: disseminated model of AML; conditions: combination therapy with cytarabine; cited from earlier work
[3] = in vivo; cited from earlier work
[4] = system: adult subjects with advanced/metastatic solid tumors; conditions: cited from earlier work
[5] = system: xenograft tumor; conditions: well tolerated doses, oral administration; cited from earlier work
[6] = system: cancer cell lines; conditions: cited from earlier work
[7] = system: HT29 human colon adenocarcinoma xenografts; conditions: combination with irinotecan compared to each agent alone; cited from earlier work
[8] = system: patients with relapsed or refractory acute myeloid leukemia (R/R AML); assay: Phase 1b/2 study (NCT03303339) of onvansertib in combination with decitabine; type: in vivo; conditions: oral, days 1 through 5, in combination with decitabine 20 mg/m^2 intravenously
From the text: The terms “complete remission” or “complete recovery” as used herein can refer to the absence of extramedullary disease (e.g., leukemic cell aggregates outside of bone marrow), <5% blasts in the bone marrow, absence of circulating blasts and blasts with Auer rods (e.g., inclusion bodies), and platelets≥100×10^9/L and neutrophils≥1.0×10^9/L. The term “complete remission with incomplete hematologic recovery” can refer to all CR criteria except for residual neutropenia (neutrophils<1.0×10^9/L) or thrombocytopenia (platelets<100×10^9/L). The term “morphologic leukemia free state” (MFLS) can refer to <5% blasts in the bone marrow with no blasts with Auer rods and no extramedullary disease. The terms “partial response” or “partial remission” can refer to the presence of all hematologic criteria of CR, decrease of bone marrow blast percentage to 5% to 25%, and/or decrease of pretreatment bone marrow blast percentage by at least 50%. The term “Bone marrow response” (BMR) can refer to at least 50% decrease in bone marrow blast from baseline. In some embodiments, the term “overall response rate” (ORR) can refer to the combined CR, CRi, MFLS, and PR. In some embodiments a combined CR/CRi value is reported. […]

[9] = system: cell lines, both from solid as well as hematologic tumors; conditions: large number of cell lines; cited from earlier work
[10] = rodent and nonrodent species; cited from earlier work

Chain of PLK1 (P53350 whole entry): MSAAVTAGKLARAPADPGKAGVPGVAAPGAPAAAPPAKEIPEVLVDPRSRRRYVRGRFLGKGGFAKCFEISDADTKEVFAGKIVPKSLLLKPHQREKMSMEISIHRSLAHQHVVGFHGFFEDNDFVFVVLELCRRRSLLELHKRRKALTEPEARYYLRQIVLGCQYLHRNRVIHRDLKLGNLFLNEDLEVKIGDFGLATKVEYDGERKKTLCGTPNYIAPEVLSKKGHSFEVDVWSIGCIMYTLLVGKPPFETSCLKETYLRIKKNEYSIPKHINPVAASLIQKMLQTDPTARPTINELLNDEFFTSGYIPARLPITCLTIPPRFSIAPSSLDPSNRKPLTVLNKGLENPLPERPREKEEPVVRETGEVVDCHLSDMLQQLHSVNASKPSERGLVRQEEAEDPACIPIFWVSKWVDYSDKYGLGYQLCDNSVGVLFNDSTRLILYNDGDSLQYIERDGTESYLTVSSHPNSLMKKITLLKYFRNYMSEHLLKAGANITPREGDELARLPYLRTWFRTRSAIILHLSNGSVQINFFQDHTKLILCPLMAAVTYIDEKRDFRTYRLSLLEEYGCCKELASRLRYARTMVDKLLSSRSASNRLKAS

For `CN1CCN(c2ccc(OC(F)(F)F)c(Nc3ncc4c(n3)-c3c(c(C(N)=O)nn3CCO)CC4)c2)CC1` [onvansertib, 1-(2-hydroxyethyl)-8-{[5-(4-methylpiperazin-1-yl)-2-(trifluoromethoxy)phenyl]amino}-4,5-dihydro-1H-pyrazolo[4,3-h] quinazoline-3-carboxamide], the “specificity for PLK1” value [1] is given as “high specificity”, the survival of animals [2] is given as “prolonged survival” and the half-life [3] is given as “about 24 hours”. For the same compound, the “recommended phase 2 dose” value ([4]; advanced/metastatic solid tumors) was 24 mg/m^2, the primary dose-limiting toxicities ([4]; in vivo) was “neutropenia and thrombocytopenia” and the “patients with stable disease” value ([4]; of 16 evaluable patients) was 5 patients. The “recovery of hematologic toxicities” value ([4]; reversible) was at most 3 weeks, the xenograft tumor growth [5] was “inhibits xenograft tumor growth” and the “effect on cell cycle” value [6] was “potently causes a mitotic cell-cycle arrest followed by apoptosis”. The tumor regression [7] was “enhanced tumor regression”, the maximum tolerated dose [8] was 60 mg/m^2 and the “potency in proliferation assays” value [9] was “low nanomolar activity”. For the same compound, the oral bioavailability [10] was “good oral bioavailability”.
